Test results: patent US10981896B2, “Indolinone derivatives as inhibitors of maternal embryonic leucine zipper kinase” (BOARD OF REGENTS, THE UNIVERSITY OF TEXAS SYSTEM, priority 2017, dated 2021)
Where “and” joins values, the source holds several entries; their conditions need not be identical. Equal entries are not always repeated.

Tests used:
[1] = target: CAMKK2 (Homo sapiens (Human), UniProt Q96RR4); assay: Selectivity dose-response kinase assay, CAMKK2; assay type: biochemical; conditions: 100 μM ATP
Text: (§1) CHK1 and NUAK1 were purchased from SignalChem (Vancouver, BC). The NUAK2, CHK, and SAMS peptides were purchased from BioSyn (Lewisville, Tex.). The sequence of CHK and NUAK2 peptides are described elsewhere (Sanchez Y, et al. Science (New York, N.Y.). 1997; 277(5331):1497-1501; Scott J W, et al. Sci Rep. 2015; 5:14436). ERK2, AMPK, CAMKK2, and Ets1 were produced in house as previously described (Waas W F, Dalby K N. The Journal of biological chemistry. 2002; 277(15):12532-12540; Neumann D, et al. Protein Expr Purif. 2003; 30(2):230-237; Waas W F, Dalby K N. Protein Expr Purif. 2001; 23(1):191-197). Apparent KM values for ATP under specific assay conditions were determined using respective experimental conditions in Table 8 with varied ATP (0-1.28 mM). All selectivity dose-response assays were performed in kinase assay buffer (see Inhibitor Library Screen) with 2 mM DTT and 100 μM γ-^32P-ATP with additional conditions listed in Table 8. IC50 and KM^ATP values were subsequently used to calculate Ki (Equation 4). Relative selectivity was determined by comparing Ki^Enzyme/Ki^MELK (termed φ in Table 7). […] Standard error from linear regression data was propagated internally in Prism and taken into account in nonlinear regression to determine IC50 or Ki.

[2] = system: MCF10A cells; assay: Cell proliferation, CellTiter-Blue viability assay, MCF10A; assay type: cell-based, human; conditions: 72 h after treatment
Text: (§2) HCC70, BT-549, and SUM159 human TNBC cell lines and MCF10A human breast epithelial cell line were purchased from American Type Culture Collection. The murine 4T1-Luc TNBC cells were purchased from PerkinElmer. HCC70, BT-549, and 4T1-Luc cells were maintained in RPMI 1640 medium (Life Technologies Inc., Grand Island, N.Y., USA) and MDA-MB-231-LM2 cells in Dulbecco's modified Eagle's medium/F12 medium (Life Technologies Inc., Grand Island, N.Y., USA), both types of medium supplemented with FBS (10%) and antibiotic/antimycotic (1%). SUM159 cells were maintained in Ham's F-12 medium (Life Technologies Inc., Grand Island, N.Y., USA) supplemented with FBS (5%), antibiotic/antimycotic (1%), insulin (5 μg/mL), and hydrocortisone (1 μg/mL). MCF10A cells were maintained in Dulbecco's modified Eagle's medium/F12 medium supplemented with horse serum (10%), antibiotic/antimycotic (1%), insulin (10 μg/mL), EGF (20 ng/mL), cholera toxin (100 ng/mL), and hydrocortisone (500 μg/mL). All cell lines used in this study were validated by the Characterized Cell Line Core Facility at MD Anderson Cancer Center by using a short tandem repeat method based on primer extension to detect single base deviations.
Cell proliferation was determined using the CellTiter-Blue viability assay as described previously (Gloeckner H, et al. Journal of immunological methods. 2001; 252(1-2):131-138). Cells were seeded in 96-well plates and treated the next day with MELK inhibitors (0-20 μM). At 72 h after MELK inhibitor treatment, optical density at 595 nm was determined.

[3] = system: BT-549 cells; assay: Cell proliferation, CellTiter-Blue viability assay, BT-549; assay type: cell-based, human; conditions: 72 h after treatment
Text: as §2, with “All cell lines used in this study were validated by the Characterized Cell Line Core Facility at MD Anderson Cancer Center by using a short tandem repeat method based on primer extension to detect single base deviations.” left out
(§3) Cell proliferation was determined using the CellTiter-Blue viability assay as described previously (Gloeckner H, et al. Journal of immunological methods. 2001; 252(1-2):131-138). […] At 72 h after MELK inhibitor treatment, optical density at 595 nm was determined.

[4] = system: HCC70 cells; assay: Cell proliferation, CellTiter-Blue viability assay, HCC70; assay type: cell-based, human; conditions: 72 h after treatment
Text: as §2, with “All cell lines used in this study were validated by the Characterized Cell Line Core Facility at MD Anderson Cancer Center by using a short tandem repeat method based on primer extension to detect single base deviations.” left out
as §3

[5] = system: SUM-159 cells; assay: Cell proliferation, CellTiter-Blue viability assay, SUM-159; assay type: cell-based, human; conditions: 72 h after treatment
Text: as §2, with “All cell lines used in this study were validated by the Characterized Cell Line Core Facility at MD Anderson Cancer Center by using a short tandem repeat method based on primer extension to detect single base deviations.” left out
as §3

[6] = target: NUAK1 (Homo sapiens (Human), UniProt O60285); assay: Selectivity dose-response kinase assay, NUAK1; assay type: biochemical; conditions: 100 μM ATP
Text: as §1

[7] = target: AMPK (Rattus norvegicus (Rat), UniProt P54645); assay: Selectivity dose-response kinase assay, AMPK; assay type: biochemical; conditions: 100 μM ATP
Text: as §1

[8] = target: ERK2 (Rattus norvegicus (Rat), UniProt P63086); assay: Selectivity dose-response kinase assay, ERK2; assay type: biochemical; conditions: 100 μM ATP
Text: as §1

[9] = target: CHK1 (Homo sapiens (Human), UniProt O14757); assay: Selectivity dose-response kinase assay, CHK1; assay type: biochemical; conditions: 100 μM ATP
Text: as §1

[10] = target: MELK (Homo sapiens (Human), UniProt Q14680); assay: MELK p81-based kinase assay, dose-response (IC50/Ki); assay type: biochemical
Method: MELK and its substrate, Bcl-G were both recombinantly expressed and purified for use in screening assays (See Methods). […] 10 nM MELK 340 and 10 μM Bcl-GL in kinase assay buffer (50 mM HEPES pH 7.5, 100 mM KCl, 0.1 mM EDTA, 0.1 mM EGTA, 10 mM MgCl2, 10 μg/mL BSA) with 10 mM DTT were added to either 10 μM or 1 μM inhibitor aliquoted into 96 well plates (final 1% DMSO). The mixture was incubated at room temperature for 30 minutes prior to initiation of the assay with 40 μM γ-^32P-ATP (100-1000 CPM/pmol). 40 μL aliquots were spotted onto a p81 96 well filter plate (Unifilter, Whatman), quenched, and washed with 75 mM O-phosphoric acid 8 times, followed by a final wash with acetone for drying. Wells were then filled with scintillation fluid, sealed, and quantified using a MicroBeta TriLux liquid scintillation counter (PerkinElmer). Each inhibitor plate was assayed in duplicate, with at least 4 wells without MELK to establish background and at least 4 wells without inhibitor as a negative control. All readings were corrected for background signal based on the average counts from the wells without enzyme. Percent inhibition, defined as [100−(CPM+inhibitor/average CPM of positive controls)*100], was determined first at 10 μM inhibitor. The top 50 inhibitors were then re-screened in duplicate at 1 μM.
At set time points (0.25, 0.5, 1, 1.5, and 2 min for assays containing 10 nM MELK and 1, 2, 4, 6, and 10 min for assays containing 1 nM MELK), 30 μL aliquots were taken from each reaction and spotted onto 2×2 cm squares of p81 paper. Papers were washed 4 times in 75 mM O-phosphoric acid and once in acetone. Labeled protein was quantified by its associated CPM determined on a Packard 1500 scintillation counter at a sigma value of 2. CPM were translated into nmol ^32P incorporated using Equation 1.
Rates in the presence of each concentration of inhibitor were determined by plotting nmol ^32P incorporated vs. time. These rates were normalized to rates obtained without inhibitor, and data were plotted in terms of fractional activity. In most cases, data were fit to Equation 2. If the IC50 approached the amount of enzyme used in the assay, data were re-fit to the equation for tight-binding inhibitors (the Morrison equation, […]). […] Data were transformed as discussed and fit to Equation 3.
IC50 values were used to estimate each inhibitor's Ki using the Cheng-Prusoff relationship for competitive inhibitors (Equation 4).

Sequence of MELK (Q14680 1-340): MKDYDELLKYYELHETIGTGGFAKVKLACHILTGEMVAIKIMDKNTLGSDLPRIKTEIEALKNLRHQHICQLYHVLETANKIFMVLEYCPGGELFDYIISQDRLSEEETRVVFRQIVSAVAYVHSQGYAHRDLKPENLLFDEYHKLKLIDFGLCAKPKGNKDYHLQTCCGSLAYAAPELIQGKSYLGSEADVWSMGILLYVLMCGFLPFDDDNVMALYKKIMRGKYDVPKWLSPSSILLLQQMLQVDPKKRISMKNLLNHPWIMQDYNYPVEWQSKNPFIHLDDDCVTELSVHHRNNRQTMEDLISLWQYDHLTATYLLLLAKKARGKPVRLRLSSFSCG
Sequence of CAMKK2 (Q96RR4 whole entry, species assumed): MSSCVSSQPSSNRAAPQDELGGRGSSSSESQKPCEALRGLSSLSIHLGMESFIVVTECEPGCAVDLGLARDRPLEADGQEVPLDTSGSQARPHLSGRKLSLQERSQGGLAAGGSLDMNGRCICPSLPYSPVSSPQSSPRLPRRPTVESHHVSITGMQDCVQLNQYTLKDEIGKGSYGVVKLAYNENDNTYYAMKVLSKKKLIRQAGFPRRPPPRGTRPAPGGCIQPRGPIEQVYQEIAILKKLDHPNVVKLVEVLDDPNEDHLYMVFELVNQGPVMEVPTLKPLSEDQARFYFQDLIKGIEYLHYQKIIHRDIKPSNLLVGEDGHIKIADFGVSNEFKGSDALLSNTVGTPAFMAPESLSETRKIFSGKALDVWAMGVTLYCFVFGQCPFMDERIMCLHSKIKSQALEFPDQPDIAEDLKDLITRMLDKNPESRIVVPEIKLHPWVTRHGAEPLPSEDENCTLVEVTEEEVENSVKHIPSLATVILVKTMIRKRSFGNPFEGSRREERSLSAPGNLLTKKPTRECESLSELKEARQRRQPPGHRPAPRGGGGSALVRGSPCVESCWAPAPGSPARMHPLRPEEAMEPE
Sequence of CHK1 (O14757 whole entry): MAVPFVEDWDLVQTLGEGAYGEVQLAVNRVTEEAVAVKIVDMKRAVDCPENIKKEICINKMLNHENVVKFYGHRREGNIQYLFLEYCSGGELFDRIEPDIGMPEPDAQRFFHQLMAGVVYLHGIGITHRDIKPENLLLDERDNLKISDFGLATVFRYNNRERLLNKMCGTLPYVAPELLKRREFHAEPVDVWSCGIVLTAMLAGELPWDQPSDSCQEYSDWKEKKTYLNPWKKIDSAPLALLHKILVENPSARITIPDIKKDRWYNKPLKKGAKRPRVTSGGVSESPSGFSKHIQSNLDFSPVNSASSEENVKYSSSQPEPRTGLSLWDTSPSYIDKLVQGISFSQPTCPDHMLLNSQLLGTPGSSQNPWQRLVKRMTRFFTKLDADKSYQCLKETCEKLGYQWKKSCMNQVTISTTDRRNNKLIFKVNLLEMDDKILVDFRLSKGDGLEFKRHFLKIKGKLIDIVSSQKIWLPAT
Sequence of ERK2 (P63086 whole entry): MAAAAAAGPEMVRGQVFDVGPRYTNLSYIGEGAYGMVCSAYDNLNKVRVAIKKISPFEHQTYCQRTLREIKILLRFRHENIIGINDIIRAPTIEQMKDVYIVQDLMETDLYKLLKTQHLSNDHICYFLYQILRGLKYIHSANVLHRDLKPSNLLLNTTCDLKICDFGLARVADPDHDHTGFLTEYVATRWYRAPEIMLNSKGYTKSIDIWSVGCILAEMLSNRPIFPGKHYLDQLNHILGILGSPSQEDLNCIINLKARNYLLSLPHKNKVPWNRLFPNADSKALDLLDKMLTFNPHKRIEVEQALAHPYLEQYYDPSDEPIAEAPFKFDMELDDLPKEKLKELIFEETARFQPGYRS
Sequence of NUAK1 (O60285 whole entry): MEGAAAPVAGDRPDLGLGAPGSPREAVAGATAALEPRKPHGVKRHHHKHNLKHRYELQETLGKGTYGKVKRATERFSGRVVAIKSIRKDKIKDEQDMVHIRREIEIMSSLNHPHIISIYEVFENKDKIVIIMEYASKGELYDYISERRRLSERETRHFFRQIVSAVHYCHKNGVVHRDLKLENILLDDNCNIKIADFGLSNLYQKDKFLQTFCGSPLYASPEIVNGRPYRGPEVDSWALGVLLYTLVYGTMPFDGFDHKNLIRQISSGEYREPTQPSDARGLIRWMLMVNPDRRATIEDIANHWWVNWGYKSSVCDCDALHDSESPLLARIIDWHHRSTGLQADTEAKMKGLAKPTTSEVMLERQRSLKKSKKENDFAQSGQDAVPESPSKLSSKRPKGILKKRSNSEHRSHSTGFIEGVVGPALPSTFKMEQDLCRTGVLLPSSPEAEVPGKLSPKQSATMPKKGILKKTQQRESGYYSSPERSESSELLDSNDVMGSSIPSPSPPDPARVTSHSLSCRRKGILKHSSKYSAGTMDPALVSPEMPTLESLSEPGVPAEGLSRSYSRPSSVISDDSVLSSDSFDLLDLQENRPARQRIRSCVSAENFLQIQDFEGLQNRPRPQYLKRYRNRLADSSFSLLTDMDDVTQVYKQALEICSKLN
Sequence of AMPK (P54645 whole entry, looked up): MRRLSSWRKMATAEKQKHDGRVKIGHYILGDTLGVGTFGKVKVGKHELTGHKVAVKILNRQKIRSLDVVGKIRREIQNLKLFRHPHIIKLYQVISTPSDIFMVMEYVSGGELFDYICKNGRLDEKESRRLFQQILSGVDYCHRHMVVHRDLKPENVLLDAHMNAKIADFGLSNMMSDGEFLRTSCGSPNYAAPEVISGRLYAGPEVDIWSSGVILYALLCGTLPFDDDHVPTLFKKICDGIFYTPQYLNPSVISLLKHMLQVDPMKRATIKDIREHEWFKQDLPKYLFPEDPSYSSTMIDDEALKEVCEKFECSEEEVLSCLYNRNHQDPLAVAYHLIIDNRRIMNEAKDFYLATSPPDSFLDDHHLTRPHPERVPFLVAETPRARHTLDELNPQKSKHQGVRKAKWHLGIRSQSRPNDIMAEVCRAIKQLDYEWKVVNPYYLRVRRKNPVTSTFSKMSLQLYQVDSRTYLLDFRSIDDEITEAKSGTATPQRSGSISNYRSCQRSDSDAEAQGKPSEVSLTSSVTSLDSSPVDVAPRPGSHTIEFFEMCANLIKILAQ
Sequence of AMPK (P80386 whole entry partner, looked up): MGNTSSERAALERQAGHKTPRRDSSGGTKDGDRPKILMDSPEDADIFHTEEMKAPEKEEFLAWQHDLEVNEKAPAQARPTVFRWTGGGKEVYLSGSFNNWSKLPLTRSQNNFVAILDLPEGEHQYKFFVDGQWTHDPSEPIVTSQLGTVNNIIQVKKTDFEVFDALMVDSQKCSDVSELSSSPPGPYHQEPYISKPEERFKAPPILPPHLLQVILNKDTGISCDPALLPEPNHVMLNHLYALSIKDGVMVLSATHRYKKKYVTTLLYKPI
Sequence of AMPK (P80385 whole entry partner, looked up): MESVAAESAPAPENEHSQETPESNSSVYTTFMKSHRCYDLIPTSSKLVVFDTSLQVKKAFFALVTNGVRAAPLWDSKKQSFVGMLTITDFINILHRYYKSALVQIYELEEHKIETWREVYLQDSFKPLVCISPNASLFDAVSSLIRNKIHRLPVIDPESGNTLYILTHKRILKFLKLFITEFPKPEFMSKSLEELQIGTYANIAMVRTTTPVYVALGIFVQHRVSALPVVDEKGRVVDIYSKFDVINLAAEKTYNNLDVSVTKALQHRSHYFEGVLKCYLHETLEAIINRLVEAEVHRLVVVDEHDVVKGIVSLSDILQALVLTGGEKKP

Row | Ki [1] | Ki [6] | Ki [7] | Ki [8] | Ki [9] | Ki ([10]; Ki calculated using Equation 4, [ATP] = 40 μM, KM app (ATP) = 6 μM, read-out: Ki ± SE) | IC50 ([10]; indolinone derivatives, 40 μM ATP, read-out: IC50) | Structure (SMILES) | proliferation of MCF10A cells [2] | proliferation of MCF10A cells ([2]; at 10 μM) | proliferation of BT-549 cells [3] | proliferation of HCC70 cells [4] | proliferation of SUM-159 cells [5]
1 | 31 ± 11 nM | 11 ± 0.86 nM | 9.2 ± 1.7 nM | 3000 ± 1300 nM | 7 ± 0.17 nM |  |  | COC(=O)c1ccc2c(c1)/C(=C(/Nc1ccc(N(C)C(=O)CN3CCN(C)CC3)cc1)c1ccccc1)C(=O)N2 [Compound 17, Methyl(Z)-3-(((4-(N-methyl-2-(4-methylpiperazin-1-yl)acetamido)phenyl)amino)(phenyl)methylene)-2-oxoindoline-5-carboxylate] | little effect | remained largely unaffected | clearly impacted | clearly impacted | clearly impacted
2 |  |  |  |  |  | 3.1 nM and 0.68 nM | 24 ± 4.7 nM | CN1CCN(CC(=O)N(C)c2ccc(N/C(=C3\C(=O)Nc4ccc(F)cc43)c3ccccc3)cc2)CC1 [Compound 19, (Z)—N-(4-(((5-Fluoro-2-oxoindolin-3-ylidene)(phenyl)methyl)amino)phenyl)-N-methyl-2-(4-methylpiperazin-1-yl)acetamide] | inhibited all cell lines |  | inhibited all cell lines | inhibited all cell lines | inhibited all cell lines
